The text below walks through data of ChEMBL document CHEMBL1145787, “Synthesis and structure-activity relationship of N-substituted 4-arylsulfonylpiperidine-4-hydroxamic acids as novel, orally active matrix metalloproteinase inhibitors for the treatment of osteoarthritis” (J Med Chem, 2003).

Assay [1] can be described thus: In vivo inhibitory activity against Matrix metalloprotease enzyme by dialysis implant assay, value is relative to activity of CGS-27023 (65+/-2) at 25 mg/kg. po. The assay is classed as functional.
A short description of assay [2]: In vivo inhibition of Matrix metalloprotease enzyme by Sponge-wrapped cartilage assay, value is relative to activity of RS-130830 (39+/-2) at 10 mg/kg. po. bid. The assay is classed as functional.
A further assay has as its target Collagenase 3 (Homo sapiens, UniProt P45452).
Assay [3] is described as follows: In vivo inhibitory activity against Matrix metalloprotease enzyme by dialysis implant assay, value are relative to activity of CGS-27023 (64+/-3) at 25 mg/kg. po. The assay is classed as functional.
A short description of assay [4]: In vivo inhibition of Matrix metalloprotease enzyme by Sponge-wrapped cartilage assay, value are relative to activity of RS-130830 (27+/-3) at 10 mg/kg. po. bid. The class given is functional.
For the next assay, the target named is T1, Interstitial collagenase (Homo sapiens, UniProt P03956).
T1 sequence (P03956 whole entry): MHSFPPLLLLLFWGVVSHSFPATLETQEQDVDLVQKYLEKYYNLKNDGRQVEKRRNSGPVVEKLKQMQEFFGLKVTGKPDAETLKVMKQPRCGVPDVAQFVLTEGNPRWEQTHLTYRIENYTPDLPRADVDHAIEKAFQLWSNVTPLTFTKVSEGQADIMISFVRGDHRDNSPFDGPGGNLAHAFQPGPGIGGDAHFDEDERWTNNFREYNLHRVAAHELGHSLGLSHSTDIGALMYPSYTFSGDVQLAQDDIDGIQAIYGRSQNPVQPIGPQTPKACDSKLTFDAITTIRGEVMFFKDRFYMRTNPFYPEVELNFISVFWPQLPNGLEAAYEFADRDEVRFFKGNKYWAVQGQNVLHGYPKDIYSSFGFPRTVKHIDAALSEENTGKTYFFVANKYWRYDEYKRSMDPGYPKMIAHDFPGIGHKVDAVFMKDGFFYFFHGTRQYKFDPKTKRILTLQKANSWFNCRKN
The experiment in a line: In vitro inhibitory activity against matrix metalloprotease-1.

Assay [5] has as its target Matrix metalloproteinase-9 (Homo sapiens, UniProt P14780). Kind of assay: In vitro inhibitory activity against matrix metalloprotease-9.
Assay [6] concerns the target Disintegrin and metalloproteinase domain-containing protein 17 (Homo sapiens, UniProt P78536).

Sequence of Disintegrin and metalloproteinase domain-containing protein 17 (P78536 whole entry, the tested form may be a part): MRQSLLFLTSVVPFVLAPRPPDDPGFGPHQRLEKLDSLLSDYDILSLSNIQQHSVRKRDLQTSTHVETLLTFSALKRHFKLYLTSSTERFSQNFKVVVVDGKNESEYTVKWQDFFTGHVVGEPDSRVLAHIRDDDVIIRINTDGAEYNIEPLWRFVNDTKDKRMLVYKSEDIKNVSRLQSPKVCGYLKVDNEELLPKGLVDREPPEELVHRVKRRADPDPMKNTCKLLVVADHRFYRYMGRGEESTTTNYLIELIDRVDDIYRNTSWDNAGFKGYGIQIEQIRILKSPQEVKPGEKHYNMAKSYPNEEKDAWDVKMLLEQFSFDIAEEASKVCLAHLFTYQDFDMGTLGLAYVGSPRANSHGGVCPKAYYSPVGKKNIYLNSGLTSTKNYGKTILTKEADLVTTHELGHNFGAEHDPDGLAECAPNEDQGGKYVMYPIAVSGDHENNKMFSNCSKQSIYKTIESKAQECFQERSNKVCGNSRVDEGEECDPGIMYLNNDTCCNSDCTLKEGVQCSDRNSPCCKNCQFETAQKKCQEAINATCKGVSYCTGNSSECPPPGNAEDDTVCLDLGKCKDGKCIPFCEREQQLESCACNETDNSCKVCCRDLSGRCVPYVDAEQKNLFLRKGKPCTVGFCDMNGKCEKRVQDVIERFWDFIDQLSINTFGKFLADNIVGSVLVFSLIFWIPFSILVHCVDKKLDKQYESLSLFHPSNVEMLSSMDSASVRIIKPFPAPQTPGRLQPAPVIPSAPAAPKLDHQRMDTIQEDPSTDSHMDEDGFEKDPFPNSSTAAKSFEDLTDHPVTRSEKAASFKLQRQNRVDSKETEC
Sequence of Matrix metalloproteinase-9 (P14780 whole entry, the tested form may be a part): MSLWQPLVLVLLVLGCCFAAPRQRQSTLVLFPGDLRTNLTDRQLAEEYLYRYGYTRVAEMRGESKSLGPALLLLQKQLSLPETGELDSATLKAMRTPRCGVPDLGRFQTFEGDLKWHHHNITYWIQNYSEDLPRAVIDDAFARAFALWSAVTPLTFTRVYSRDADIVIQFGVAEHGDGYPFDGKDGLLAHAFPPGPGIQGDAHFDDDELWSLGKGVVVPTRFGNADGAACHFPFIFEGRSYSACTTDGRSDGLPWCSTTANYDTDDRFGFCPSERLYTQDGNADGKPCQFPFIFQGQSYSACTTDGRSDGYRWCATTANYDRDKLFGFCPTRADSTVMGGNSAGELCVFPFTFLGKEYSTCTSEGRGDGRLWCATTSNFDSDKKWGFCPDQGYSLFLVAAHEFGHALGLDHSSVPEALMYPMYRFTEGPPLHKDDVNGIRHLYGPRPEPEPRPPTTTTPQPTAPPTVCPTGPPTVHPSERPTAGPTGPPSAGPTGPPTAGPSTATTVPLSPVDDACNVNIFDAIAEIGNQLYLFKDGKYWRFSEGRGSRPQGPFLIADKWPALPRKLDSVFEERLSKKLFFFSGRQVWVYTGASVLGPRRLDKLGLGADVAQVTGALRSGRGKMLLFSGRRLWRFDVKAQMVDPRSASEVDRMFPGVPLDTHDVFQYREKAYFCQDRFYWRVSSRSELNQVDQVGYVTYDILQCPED

In assay [1], `CN1CCC(C(=O)NO)(S(=O)(=O)c2ccc(Oc3ccc(Cl)cc3)cc2)CC1` showed an inhibition in vivo at 25 mg/kg of 91%. Besides, at 10 mg/kg the inhibition in vivo in assay [2] was 73%. Moreover, on Collagenase 3, half-maximal inhibition (IC50) required 2 nM.

In assay [3], `CCC(CC)Oc1ccc(S(=O)(=O)C2(C(=O)NO)CCN(Cc3ccccc3)CC2)cc1` came in with an inhibition in vivo at 25 mg/kg of 68%. The molecule also came in with an inhibition in vivo at 10 mg/kg in assay [4] of 27%. Also, the IC50 stood at 3160 nM against Interstitial collagenase, 14 nM in assay [5], 5 nM against Collagenase 3 and 39 nM in assay [6].

As usually defined, the inhibition in vivo is the share of the control response that was lost under treatment. Read a low inhibition in vivo as little suppression. What is called IC50 is the midpoint of a concentration-inhibition curve.
